# In paper PMC7244497 (Scientific Reports, 2020):
# What was measured:
# [1] = cited from earlier work
# [2] = system: DOP receptor dephosphorylation at T361 and S363; assay: DOP receptor dephosphorylation after DPDPE washout with phosphatase inhibitors (Western blot, HEK293 cells); format: cell-based, human; settings: HEK293 HA-hDOP; inhibitor preincubated 30 min, 1 µM DPDPE 10 min, citrate washout, 0-40 min
SMILES,Effective dose in most behavior assays [1] [mg/kg],Effect on DOP receptor dephosphorylation at T361 and S363 [2]
"CCN(CC)C(=O)c1ccc(C2=CC3(CCNCC3)Oc3cccc(O)c32)cc1 [ADL5859, N,N-diethyl-4-(5-hydroxyspiro[chromene-2,4′-piperidine]-4-yl)benzamide]",10,
COC[C@@H]([C@H](O)[C@H](O)C(=O)NCC[C@H](C)c1nc(/C=C/C[C@@H]2O[C@]3(C[C@@H](O)[C@@H]2C)O[C@H]([C@H](C[C@H](O)[C@H](C)[C@H](O)[C@H](C)/C=C(C)/C(C)=C/C=C/C(C)=C\C#N)OC)[C@H](OP(=O)(O)O)C3(C)C)co1)N(C)C [calyculin A],,inhibited in a concentration-dependent manner only by calyculin A
"CCN(CC)C(=O)c1ccc(C(=C2CCNCC2)c2ccccc2)cc1 [AR-M1000390, N,N-Diethyl-4-(phenylpiperidin-4-ylidenemethyl)benzamide]",10,
